Data on three molecules can be found in patent EP4635958A1, “PYRIMIDINE-CONTAINING POLYCYCLIC DERIVATIVE INHIBITOR, AND PREPARATION METHOD THEREFOR AND USE THEREOF” (Shanghai Hansoh Biomedical Co., Ltd., priority 2022, dated 2024).

The nature of series [1]: Pharmacokinetic determination in rats (IV and PO, plasma, LCMS/MS). The series is classed as in vivo, SD rats. The settings on record: male SD rats. As to the method:
SD rats were used as test animals to study the pharmacokinetic behavior of the example compounds in rats (plasma) after oral administration.
(§1) The example compounds of the present invention, made in house.
3 SD rats per group, male. Shanghai Jiesijie Experimental Animal Co., Ltd., animal production license number (SCXK (Shanghai) 2013-0006 N0.311620400001794).
Formulation of a drug for oral administration: 10% Captisol in 50 mM citrate buffer pH 5.0.
(§2) Formulation of 50 mM citric acid: 4.8 g of citric acid was weighed into a 1000 ml glass bottle, ultrapure water was added to 300 ml, and the mixture was magnetically stirred until completely dissolved, additional ultrapure water was then added to 500 ml to formulate 50 mM citric acid.
(§3) Formulation of a solution containing 50 mM citric acid (10% Captisol, PH = 5): 50 g of Captisol powder was weighed and added to a 1000 ml glass bottle, 300 ml of 50 mM citric acid was added, and the mixture was magnetically stirred until completely dissolved, then additional citric acid was added to 500 ml, and the PH was adjusted to 5 using 10 M NaOH.
The example compounds were weighed and dissolved in the solution and the mixture was shaken well and subjected to ultrasound treatment for 15 min to obtain a colorless clear solution with a concentration of 3 mg/mL.
(§4) Formulation of a drug for intravenous administration: 5%DMSO+10%Solutol HS15+85%PBS.
(§5) The example compounds were weighed, and 5% DMSO was added according to the total administration volume; the mixture was vortexed and sonicated for 2 min to ensure complete dissolution; then, 10% Solutol HS15 was added, and the mixture was vortexed and sonicated for 2 min to achieve complete dissolution; finally, 85% PBS was added, and the mixture was vortexed and sonicated for 5 min; the obtained mixture was filtered through a 0.22 um membrane to obtain a colorless, transparent, and clear solution with a concentration of 0.2 mg/mL.
3 SD rats per group, male; After overnight fasting, the animals were administered orally (PO) at a dose of 30 mg/kg with an administration volume of 10 mL/kg.
3 SD rats per group, male; After overnight fasting, the animals were administered intravenously (IV) at a dose of 1 mg/kg with an administration volume of 5 mL/kg.
0.2 mL of blood was collected from the jugular vein before administration and at 0.25 h, 0.5 h, 1.0 h, 2.0 h, 4.0 h, 6.0 h, 8.0 h, and 24.0 h after administration and placed in an EDTA-2K test tube, and the test tube was centrifuged at 6000 rpm for 6 min at 4°C to separate the plasma, which was stored at -20°C. the animals were fed 4 h after administration.
The final determination results obtained by applying the LCMS/MS method are shown in the table below: Table 8: Pharmacokinetic parameters of the compounds administered intravenously in rats

The subject of the next series is AsPC-1. Briefly: Inhibition of proliferation of KRAS G12D mutant tumor cell line AsPC-1 (CellTiter-Glo). The series is classed as cell-based. As to the method:
1. Experimental objective: The inhibition activity of the example compounds on the proliferation of 5 KRAS G12D mutant cell lines SNU-1, HPAF-II, Panc0403, AsPC-1 and GP2D was determined. 2. Experimental instruments: • 2.1 Instruments: Microplate reader (BioTek Synergy H1); Pipette (Eppendorf & Rainin). • 2.2 Reagents: HPAF-II, PANC0403, AsPC-1 and GP2D were purchased from COBIOER BIOSCIENCES CO., LTD; SNU-1 was purchased from the cell bank of Chinese Academy of Sciences, Cell Titer-Glo was purchased from Promega, with a catalog number of G7573; RPMI 1640 was purchased from Gibco, with a catalog number of 22400089; DMEM was purchased from Gibco, with a catalog number of 11995065; FBS was purchased from Gibco, with a catalog number of 10091148; PBS was purchased from Gibco, with a catalog number of 10010023; trypsin was purchased from Gibco, with a catalog number of 25200056; cell culture plates were purchased from Corning Company, with a catalog number of 3610. 3. Experimental method: When SNU-1, HPAF-II, Panc0403, AsPC-1 or GP2D cells were cultured to the appropriate confluence, and the SNU-1, HPAF-II, Panc0403, AsPC-1 or GP2D cells were collected. The cells were adjusted to the appropriate cell density using complete culture medium, the cell suspension was plated onto a 96-well plate at 90 µL per well, and the plate was placed in the incubator at 37°C and 5% CO2 for adherent culture overnight. Solutions of the compound with different concentrations were formulated using DMSO and culture medium. A vehicle control was set up. The solutions of the compound were added to the 96-well plate at 10 µL per well, and the plate was placed in the incubator at 37°C and 5% CO2 for further culture for about 72 h. Then, CellTiter-Glo solution was added, and the obtained mixture was shaken and mixed evenly, incubated in the dark for 10 min, and read with a BioTek Synergy H1 microplate reader. 4. Experimental data processing method: The luminescence signal value was used to calculate the inhibition rate. Graphpad Prism software was used to fit the concentration and inhibition rate to a nonlinear regression curve, so as to obtain the IC50 value. 5. Experimental results: Table 2: Determination of the inhibition activity of the compounds on the proliferation of KRAS G12D mutant tumor cell line GP2D

Another series relates to GP2D. As to the kind of experiment: Inhibition of proliferation of KRAS G12D mutant tumor cell line GP2D (CellTiter-Glo). The settings on record: read-out: GP2D IC50. A general note: In ATP-based viability assays light output follows the ATP content of the culture.
A short description of series [2]: Pharmacokinetic determination in mice (IV and PO, plasma, LCMS/MS). Format: in vivo, Balb/c mice.
Source text: • 1. Study objective: Balb/c mice were used as test animals to study the pharmacokinetic behavior of the compounds in mice (plasma) after oral administration. • 2. Test scheme • 2.1 Test drugs: The example compounds of the present invention, made in house; • 2.2 Test animals: Balb/c mice, male, purchased from Shanghai Jiesijie Experimental Animal Co., Ltd., animal production license number (SCXK (Shanghai) 2013-0006 N0.311620400001794). • 2.3 Drug formulation: Formulation of a drug for oral administration: 10% Captisol in 50 mM citrate buffer pH 5.0.
as §2, §3
The example compounds were weighed and added to a 4 mL glass bottle separately, 2.4 mL of the solution was added and the mixture was subjected to ultrasound treatment for 10 min to obtain a colorless clear solution with a concentration of 3 mg/mL.
as §4, §5
3 Balb/c mice, male; After overnight fasting, the animals were administered orally (PO) at a dose of 30 mg/kg with an administration volume of 10 mL/kg.
3 Balb/C mice, male; After overnight fasting, the animals were administered intravenously (IV) at a dose of 1 mg/kg with an administration volume of 5 mL/kg.
0.04 mL of blood was collected from the orbit before administration and at 0.25 h, 0.5 h, 1 h, 2 h, 4 h, 6 h, 8 h, and 24 h after administration and placed in an EDTA-2K test tube, and the test tube was centrifuged at 6000 rpm for 6 min at 4°C to separate the plasma, which was stored at -20°C; the animals were fed 4 h after administration.
The final determination results obtained by applying the LCMS/MS method are shown in the table below: Table 6: Pharmacokinetic parameters of the compounds administered intravenously in mice

Series [3] concerns human colorectal cancer cell line (GP2D). As to the kind of experiment: Anti-tumor efficacy in mouse transplanted tumor model of human colorectal cancer cell line (GP2D). The settings on record: 100mpk, PO*BID. Format: in vivo, mice (BALB/c nude).
Source text: 8-10 week old female conventional immunodeficient mice (BALB/c nude) with a body weight of 18 g-22 g were used as experimental animals, and a transplanted tumor model of human colorectal cancer cell line (GP2D) was used to conduct in vivo efficacy experiments to test the anti-tumor results of the example compounds after gavage administration.
as §1
A certain amount of the example compound was weighed, and an appropriate amount of 10% vehicle (Solutol HS15) was added. The mixture was stirred on a magnetic stirrer for 0.5 h to formulate a homogeneous suspension at the desired concentration.
The human colorectal cancer cell line (GP2D) was derived from COBIOER BIOSCIENCES CO., LTD, cultured on DMEM medium (Gibco, 11995-065) supplemented with 10% fetal calf serum (Gibco, 10091-148) and 1% penicillin/streptomycin (Gibco, 15140-122) and observed under a microscope (Thermo Fisher, 311). The cells were routinely passaged when the cells reached 80%-90% confluence in the culture flask. The passaged cells were cultured in a 37°C, 5% CO2 incubator (Thermo Fisher, 311).
Under aseptic conditions, human colorectal cancer cells (GP2D) in the logarithmic growth phase were harvested using 0.25% trypsin-EDTA (Gibco, 25200-056), washed and resuspended with phosphate buffer. The cell suspension was mixed with Matrigel (Corning, 356234) at a 1 : 1 ratio (v/v) and implanted subcutaneously into the right anterior dorsal region of immunodeficient mice (BALB/c nude). Each mouse was inoculated with 5*10^6 cells in a volume of 100 microliters (µL). After inoculation, when the tumor volume reached 100-200 mm^3, the mice would be evenly randomized into 5 groups based on the tumor size, with 5 mice per group, for in vivo efficacy experiments. The positive control group was the compound MRTX-1133, and the negative control group was the vehicle group.
Mode of administration: The positive control group was intraperitoneally injected, and the example compounds were administered orally.
Twice a week, the long and short diameters of the tumor were measured using a vernier caliper, and the tumor volume (mm^3) was calculated using the formula: V = 0.5*D*d*d, where D and d are the long and short diameters of the tumor, respectively. The anti-tumor efficacy was determined by dividing the average increase in tumor volume of compound-treated animals by the average increase in tumor volume of untreated animals. The calculation formula for tumor inhibition rate was: When there is no tumor regression, TGI(%) = 100-[(Vt-V0) administration group/(Vt-V0) vehicle control group]*100%. When tumor regression occurs, TGI(%) = [1-(V1-V0) administration group/V0 vehicle control group]* 100%. All animals were euthanized after the experiment.

[4] abbreviates: IV, 1 mg/kg, overnight fasting, plasma.
The mark [5] stands for this setting: PO, 30 mg/kg, overnight fasting, plasma.
[6] abbreviates: proliferation, about 72 h, CellTiter-Glo.
Setting [7] is: Balb/c mice, intravenously (IV), 1 mg/kg, plasma.
Setting [8] is: PO, 30 mg/kg, male Balb/c mice, overnight fasting, plasma.

pIC50: −log10 of the molar value. Like-named read-outs stand apart in the source and are kept apart here.

Turning to “4-((5S,5aS,6R,9S)-12-((1-((((R)-4-(difluoromethylene)-2-methylpiperidin-1-yl)methyl)cyclopropyl)methoxy)-1-fluoro-5-methyl-5a,6,7,8,9,10-hexahydro-5H-4-oxa-3,10a,11,13,14-pentaaza-6,9-methylnaphtho[1,8-ab]hept-2-yl)-5-ethynyl-6-fluoronaphthalen-2-ol [Example 91]”, in series [1] (setting [4]), the “AUCo-∞” value was 660 ng·h/mL, the C0 was 995 ng/mL, the CL came to 25.3 mL/min/kg and the T1/2 stood at 11.9 h. Further, the F in series [1] (PO 30 mg/kg vs IV 1 mg/kg) worked out at 9.7%. Also, in series [1] (setting [5]), the “AUCo-∞” value is 1925 ng·h/mL; the Cmax (commonly the maximum level reached in the sampled fluid or tissue) is recorded as 251 ng/mL; the T1/2 is 4.8 h; the time of peak concentration (Tmax) (in general, the time from dosing to the highest level) came to 6.0 h. Also, in the series on AsPC-1 (about 72 h), the pIC50 (as a rule, −log10 of the IC50, conventionally taken in molar units) is 8.24. Further, the negative logarithm of the IC50 (pIC50) with GP2D (setting [6]) was 9.55. Besides, in series [2] (setting [7]), the “AUCo-∞” value amounted to 366 ng·h/mL, the C0 was found to be 662 ng/mL, the CL was determined as 45.6 mL/min/kg and the T1/2 was 9.3 h. In series [2] (PO 30 mg/kg vs IV 1 mg/kg, male Balb/c mice), this molecule yielded an F of 16.6%. Moreover, in series [2] (setting [8]), the “AUC0-∞” value came out at 1818 ng·h/mL, the peak concentration (Cmax) was 295 ng/mL, the T1/2 worked out at 5.7 h and the Tmax worked out at 2.0 h.
With “4-((5S,5aS,6R,9S)-12-((1-((((R)-4-(difluoromethylene)-2-methylpiperidin-1-yl)methyl)cyclopropyl)methoxy)-1-fluoro-5-methyl-5a,6,7,8,9,10-hexahydro-5H-4-oxa-3,10a,11,13,14-pentaaza-6,9-methylnaphtho[1,8-ab]hept-2-yl)-5-ethynyl-6-fluoronaphthalen-2-ol [Example 89]”, the pIC50 in the series with AsPC-1 (about 72 h) is 8.05. Further, the negative logarithm of the IC50 (pIC50) in the series on GP2D (setting [6]) was 9.05. Besides, in series [2] (setting [8]), the “AUC0-∞” value is 1513 ng·h/mL, the highest concentration (Cmax) is given as 259 ng/mL, the T1/2 came to 7.7 h and the Tmax worked out at 1.0 h.
In the case of `C#Cc1c(F)ccc2cc(O)cc(-c3nc4c5c(nc(OCC6(CN7CCC(=CF)CC7C)CC6)nc5c3F)N3CC5CCC(N5)C3C(C)O4)c12` (centres unmarked) [Example 285], the AUC(0-inf) in series [1] (rat, in vivo, PO, 30 mg/kg, overnight fasting, plasma, read-out: AUCo-∞) came to 598 ng·h/mL. For the same molecule, the Cmax in series [1] (rat, in vivo, PO, 30 mg/kg, overnight fasting, plasma, read-out: Cmax) amounted to 73 ng/mL. Moreover, the Tmax in series [1] (rat, in vivo, PO, 30 mg/kg, overnight fasting, plasma, read-out: Tmax) was found to be 2 h. The negative-log IC50 (pIC50) with AsPC-1 (Homo sapiens, ASPC1, about 72 h) is 8.32. In series [3] (Day 0), the “Tumor volume (mm^3, Mean ± SD) Day 0” value amounted to 167 mm^3. Moreover, in series [3] (Day 14), the “TGI(%) Day 14” value is recorded as 148.04%; the “Tumor volume (mm^3, Mean ± SD) Day 14” value came out at 87 mm^3; the “ΔT/ΔC(%) Day 14” value came to 10.99%. In the series with GP2D (Homo sapiens, GP2d, 72 h), the negative-log IC50 (pIC50) was 9.80.
